Patent US20240025884A1 (Dong-A ST Co., Ltd., priority 2022, published 2024)

molecular target: GCN2 (Homo sapiens (Human), UniProt Q9P2K8); experiment: GCN2 Biochemical Assay (TR-FRET, GFP-eIF2S1 substrate phosphorylation); conditions: read-out: IC50 (GCN2 Inhibitory Activity)
Summary of the method: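 In-house GCN2 (1.6 nM 2× stock) phosphorylates GFP-eIF2S1 (50 nM 2× stock) with ATP (0.2 mM 2× stock) and tRNA, pH 7.5, 70 min at room temperature; 10-point 3.16-fold compound series. TR-FRET detection with Tb-anti-phospho antibody, 2–3 h, Ex 340/Em 490/520 nm; artifact plate spiked with phospho-substrate.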

Chain of GCN2 (Q9P2K8 whole entry): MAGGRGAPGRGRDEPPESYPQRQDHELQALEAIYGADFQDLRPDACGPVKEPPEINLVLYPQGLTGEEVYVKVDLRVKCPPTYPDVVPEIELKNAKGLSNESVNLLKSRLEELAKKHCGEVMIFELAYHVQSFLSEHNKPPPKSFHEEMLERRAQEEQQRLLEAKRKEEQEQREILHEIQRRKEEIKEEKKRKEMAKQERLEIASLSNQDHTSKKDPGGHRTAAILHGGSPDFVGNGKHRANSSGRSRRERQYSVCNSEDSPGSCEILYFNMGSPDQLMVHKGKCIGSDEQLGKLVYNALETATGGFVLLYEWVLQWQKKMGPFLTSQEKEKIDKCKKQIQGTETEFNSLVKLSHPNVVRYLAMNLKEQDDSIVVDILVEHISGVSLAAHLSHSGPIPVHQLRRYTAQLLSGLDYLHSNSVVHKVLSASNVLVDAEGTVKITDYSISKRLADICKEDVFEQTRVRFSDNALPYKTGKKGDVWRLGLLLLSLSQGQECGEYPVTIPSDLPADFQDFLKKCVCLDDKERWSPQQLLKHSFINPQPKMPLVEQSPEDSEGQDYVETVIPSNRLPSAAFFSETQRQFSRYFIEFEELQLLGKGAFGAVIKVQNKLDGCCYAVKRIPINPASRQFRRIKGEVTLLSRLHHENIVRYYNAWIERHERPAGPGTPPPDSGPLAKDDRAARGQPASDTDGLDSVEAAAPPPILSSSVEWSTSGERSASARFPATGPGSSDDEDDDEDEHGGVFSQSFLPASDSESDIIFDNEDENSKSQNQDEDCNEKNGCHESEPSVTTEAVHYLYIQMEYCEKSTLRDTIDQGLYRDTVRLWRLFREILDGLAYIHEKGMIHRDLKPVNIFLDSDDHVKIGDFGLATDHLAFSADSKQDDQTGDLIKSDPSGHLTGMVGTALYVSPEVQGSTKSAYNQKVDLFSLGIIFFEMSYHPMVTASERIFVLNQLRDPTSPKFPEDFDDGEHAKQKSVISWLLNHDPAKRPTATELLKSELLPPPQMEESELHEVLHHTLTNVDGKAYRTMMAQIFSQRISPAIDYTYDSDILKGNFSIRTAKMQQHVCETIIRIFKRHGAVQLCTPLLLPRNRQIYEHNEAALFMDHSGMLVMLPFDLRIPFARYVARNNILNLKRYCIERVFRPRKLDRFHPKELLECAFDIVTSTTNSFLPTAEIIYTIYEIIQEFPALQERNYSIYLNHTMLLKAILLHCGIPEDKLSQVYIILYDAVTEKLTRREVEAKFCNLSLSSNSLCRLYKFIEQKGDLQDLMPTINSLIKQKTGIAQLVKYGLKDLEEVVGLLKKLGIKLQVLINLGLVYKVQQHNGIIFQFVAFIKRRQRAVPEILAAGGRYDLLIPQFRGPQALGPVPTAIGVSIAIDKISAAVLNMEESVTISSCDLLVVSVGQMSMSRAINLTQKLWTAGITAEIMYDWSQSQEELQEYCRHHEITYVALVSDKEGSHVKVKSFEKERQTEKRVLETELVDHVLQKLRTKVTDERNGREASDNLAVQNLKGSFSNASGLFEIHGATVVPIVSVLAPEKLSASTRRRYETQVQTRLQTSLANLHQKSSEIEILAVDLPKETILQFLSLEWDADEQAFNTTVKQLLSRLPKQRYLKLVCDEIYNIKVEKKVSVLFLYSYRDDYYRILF

Row | Compound | IC50 [nM]
1 | CNc1cc(-c2cccc3c2CN(c2cccc4c(-c5nc(Nc6cc(C)n(C)n6)ncc5C)c[nH]c24)C3=O)ccn1 [Example 476, 2-(3-(2-((1,5-dimethyl-1H-pyrazol-3-yl)amino)-5-methylpyrimidin-4-yl)-1H-indol-7-yl)-4-(2-(methylamino)pyridin-4-yl)isoindolin-1-one] | < 10
2 | Cc1cncc(-c2cccc3c2CN(c2cccc4c(-c5nc(Nc6cc(C)n(C)n6)ncc5C)c[nH]c24)C3=O)c1 [Example 477, 2-(3-(2-((1,5-dimethyl-1H-pyrazol-3-yl)amino)-5-methylpyrimidin-4-yl)-1H-indol-7-yl)-4-(5-methylpyridin-3-yl)isoindolin-1-one] | < 10
3 | Cc1cnc(Nc2cc(C)n(C)n2)nc1-c1c[nH]c2c(N3Cc4c(cccc4-c4cncc(F)c4)C3=O)cccc12 [Example 478, 2-(3-(2-((1,5-dimethyl-1H-pyrazol-3-yl)amino)-5-methylpyrimidin-4-yl)-1H-indol-7-yl)-4-(5-fluoropyridin-3-yl)isoindolin-1-one] | < 10
4 | Cc1cc(-c2cccc3c2CN(c2cccc4c(-c5nc(Nc6cc(C)n(C)n6)ncc5C)c[nH]c24)C3=O)cc(C)n1 [Example 479, 2-(3-(2-((1,5-dimethyl-1H-pyrazol-3-yl)amino)-5-methylpyrimidin-4-yl)-1H-indol-7-yl)-4-(2,6-dimethylpyridin-4-yl)isoindolin-1-one] | < 10
5 | Cc1cnc(Nc2cc(C)n(C)n2)nc1-c1c[nH]c2c(N3Cc4c(-c5ccncc5)ccc(F)c4C3=O)cccc12 [Example 480, 2-(3-(2-((1,5-dimethyl-1H-pyrazol-3-yl)amino)-5-methylpyrimidin-4-yl)-1H-indol-7-yl)-7-fluoro-4-(pyridin-4-yl)isoindolin-1-one] | < 10
6 | COc1cc(-c2ccc(F)c3c2CN(c2cccc4c(-c5nc(Nc6cc(C)n(C)n6)ncc5C)c[nH]c24)C3=O)ccn1 [Example 481, 2-(3-(2-((1,5-dimethyl-1H-pyrazol-3-yl)amino)-5-methylpyrimidin-4-yl)-1H-indol-7-yl)-7-fluoro-4-(2-methoxypyridin-4-yl)isoindolin-1-one] | < 10
7 | CNc1cc(-c2ccc(F)c3c2CN(c2cccc4c(-c5nc(Nc6cc(C)n(C)n6)ncc5C)c[nH]c24)C3=O)ccn1 [Example 482, 2-(3-(2-((1,5-dimethyl-1H-pyrazol-3-yl)amino)-5-methylpyrimidin-4-yl)-1H-indol-7-yl)-7-fluoro-4-(2-(methylamino)pyridin-4-yl)isoindolin-1-one] | < 10
8 | Cc1cnc(Nc2cc(C)n(C)n2)nc1-c1c[nH]c2c(N3Cc4c(-c5ccnc(N(C)C)c5)ccc(F)c4C3=O)cccc12 [Example 483, 2-(3-(2-((1,5-dimethyl-1H-pyrazol-3-yl)amino)-5-methylpyrimidin-4-yl)-1H-indol-7-yl)-4-(2-(dimethylamino)pyridin-4-yl)-7-fluoroisoindolin-1-one] | < 10
9 | Cc1cnc(Nc2cc(C)n(C)n2)nc1-c1c[nH]c2c(N3Cc4c(-c5cncc(F)c5)ccc(F)c4C3=O)cccc12 [Example 484, 2-(3-(2-((1,5-dimethyl-1H-pyrazol-3-yl)amino)-5-methylpyrimidin-4-yl)-1H-indol-7-yl)-7-fluoro-4-(5-fluoropyridin-3-yl)isoindolin-1-one] | < 10
10 | Cc1cnc(Nc2cc(C)n(C)n2)nc1-c1c[nH]c2c(N3Cc4c(-c5ccnc(F)c5)ccc(F)c4C3=O)cccc12 [Example 485, 2-(3-(2-((1,5-dimethyl-1H-pyrazol-3-yl)amino)-5-methylpyrimidin-4-yl)-1H-indol-7-yl)-7-fluoro-4-(2-fluoropyridin-4-yl)isoindolin-1-one] | < 10
11 | Cc1cncc(-c2ccc(F)c3c2CN(c2cccc4c(-c5nc(Nc6cc(C)n(C)n6)ncc5C)c[nH]c24)C3=O)c1 [Example 486, 2-(3-(2-((1,5-dimethyl-1H-pyrazol-3-yl)amino)-5-methylpyrimidin-4-yl)-1H-indol-7-yl)-7-fluoro-4-(5-methylpyridin-3-yl)isoindolin-1-one] | < 10
12 | Cc1cnccc1-c1ccc(F)c2c1CN(c1cccc3c(-c4nc(Nc5cc(C)n(C)n5)ncc4C)c[nH]c13)C2=O [Example 487, 2-(3-(2-((1,5-dimethyl-1H-pyrazol-3-yl)amino)-5-methylpyrimidin-4-yl)-1H-indol-7-yl)-7-fluoro-4-(3-methylpyridin-4-yl)isoindolin-1-one] | < 10
13 | Cc1cc(-c2ccc(F)c3c2CN(c2cccc4c(-c5nc(Nc6cc(C)n(C)n6)ncc5C)c[nH]c24)C3=O)cc(C)n1 [Example 488, 2-(3-(2-((1,5-dimethyl-1H-pyrazol-3-yl)amino)-5-methylpyrimidin-4-yl)-1H-indol-7-yl)-4-(2,6-dimethylpyridin-4-yl)-7-fluoroisoindolin-1-one] | < 10
14 | Cc1cnc(Nc2cc(C)n(C)n2)nc1-c1c[nH]c2c(N3Cc4c(-c5ccncc5)ccc([N+](=O)[O-])c4C3=O)cccc12 [Example 489, 2-(3-(2-((1,5-dimethyl-1H-pyrazol-3-yl)amino)-5-methylpyrimidin-4-yl)-1H-indol-7-yl)-7-nitro-4-(pyridin-4-yl)isoindolin-1-one] | < 10
15 | Cc1cnc(Nc2cc(C)n(C)n2)nc1-c1c[nH]c2c(N3Cc4c(-c5ccncc5)ccc(N(C)C)c4C3=O)cccc12 [Example 490, 2-(3-(2-((1,5-dimethyl-1H-pyrazol-3-yl)amino)-5-methylpyrimidin-4-yl)-1H-indol-7-yl)-7-(dimethylamino)-4-(pyridin-4-yl)isoindolin-1-one] | 10 to 100
16 | CNc1ccc(-c2ccncc2)c2c1C(=O)N(c1cccc3c(-c4nc(Nc5cc(C)n(C)n5)ncc4C)c[nH]c13)C2 [Example 491, 2-(3-(2-((1,5-dimethyl-1H-pyrazol-3-yl)amino)-5-methylpyrimidin-4-yl)-1H-indol-7-yl)-7-(methylamino)-4-(pyridin-4-yl)isoindolin-1-one] | 100 to 1000
17 | Cc1cnc(Nc2cc(C)n(C)n2)nc1-c1c[nH]c2c(N3Cc4c(-c5ccccc5)ccc(I)c4C3=O)cccc12 [Example 492, 2-(3-(2-((1,5-dimethyl-1H-pyrazol-3-yl)amino)-5-methylpyrimidin-4-yl)-1H-indol-7-yl)-7-iodo-4-phenylisoindolin-1-one] | 100 to 1000
18 | Cc1cnc(Nc2cc(C)n(C)n2)nc1-c1c[nH]c2c(N3Cc4c(-c5ccccc5)ccnc4C3=O)cccc12 [Example 493, 6-(3-(2-((1,5-dimethyl-1H-pyrazol-3-yl)amino)-5-methylpyrimidin-4-yl)-1H-indol-7-yl)-4-phenyl-5,6-dihydro-7H-pyrrolo[3,4-b]pyridin-7-one] | < 10
19 | Cc1cnc(Nc2cc(C)n(C)n2)nc1-c1c[nH]c2c(N3Cc4c(-c5ccncc5)ccnc4C3=O)cccc12 [Example 494, 6-(3-(2-((1,5-dimethyl-1H-pyrazol-3-yl)amino)-5-methylpyrimidin-4-yl)-1H-indol-7-yl)-4-(pyridin-4-yl)-5,6-dihydro-7H-pyrrolo[3,4-b]pyridin-7-one] | < 10
20 | Cc1cnc(Nc2cc(C)n(C)n2)nc1-c1c[nH]c2c(N3Cc4c(-c5cccnc5)ccnc4C3=O)cccc12 [Example 495, 6-(3-(2-((1,5-dimethyl-1H-pyrazol-3-yl)amino)-5-methylpyrimidin-4-yl)-1H-indol-7-yl)-4-(pyridin-3-yl)-5,6-dihydro-7H-pyrrolo[3,4-b]pyridin-7-one] | < 10
21 | Cc1cnc(Nc2cc(C)n(C)n2)nc1-c1c[nH]c2c(N3Cc4c(C5=CCNCC5)ccnc4C3=O)cccc12 [Example 496, 6-(3-(2-((1,5-dimethyl-1H-pyrazol-3-yl)amino)-5-methylpyrimidin-4-yl)-1H-indol-7-yl)-4-(1,2,3,6-tetrahydropyridin-4-yl)-5,6-dihydro-7H-pyrrolo[3,4-b]pyridin-7-one] | < 10
22 | Cc1cnc(Nc2cc(C)n(C)n2)nc1-c1c[nH]c2c(N3Cc4cc(-c5ccncc5)cnc4C3=O)cccc12 [Example 497, 6-(3-(2-((1,5-dimethyl-1H-pyrazol-3-yl)amino)-5-methylpyrimidin-4-yl)-1H-indol-7-yl)-3-(pyridin-4-yl)-5,6-dihydro-7H-pyrrolo[3,4-b]pyridin-7-one] | < 10
23 | Cc1cnc(Nc2cc(C)n(C)n2)nc1-c1c[nH]c2c(N3Cc4cc(C5=CCNCC5)cnc4C3=O)cccc12 [Example 498, 6-(3-(2-((1,5-dimethyl-1H-pyrazol-3-yl)amino)-5-methylpyrimidin-4-yl)-1H-indol-7-yl)-3-(1,2,3,6-tetrahydropyridin-4-yl)-5,6-dihydro-7H-pyrrolo[3,4-b]pyridin-7-one] | < 10
24 | Cc1cnc(Nc2cc(C)n(C)n2)nc1-c1c[nH]c2c(N3Cc4c(cncc4C4=CCNCC4)C3=O)cccc12 [Example 499, 2-(3-(2-((1,5-dimethyl-1H-pyrazol-3-yl)amino)-5-methylpyrimidin-4-yl)-1H-indol-7-yl)-7-(1,2,3,6-tetrahydropyridin-4-yl)-1,2-dihydro-3H-pyrrolo[3,4-c]pyridin-3-one] | < 10
25 | Cc1cnc(Nc2cc(C)n(C)n2)nc1-c1c[nH]c2c(N3Cc4c(cncc4-c4ccncc4)C3=O)cccc12 [Example 500, 2-(3-(2-((1,5-dimethyl-1H-pyrazol-3-yl)amino)-5-methylpyrimidin-4-yl)-1H-indol-7-yl)-7-(pyridin-4-yl)-1,2-dihydro-3H-pyrrolo[3,4-c]pyridin-3-one] | < 10
26 | Cc1cnc(Nc2cc(C)n(C)n2)nc1-c1c[nH]c2c(N3Cc4c(ccnc4-c4ccncc4)C3=O)cccc12 [Example 501, 2-(3-(2-((1,5-dimethyl-1H-pyrazol-3-yl)amino)-5-methylpyrimidin-4-yl)-1H-indol-7-yl)-4-(pyridin-4-yl)-2,3-dihydro-1H-pyrrolo[3,4-c]pyridin-1-one] | < 10
27 | Cc1cc(-c2nccc3c2CN(c2cccc4c(-c5nc(Nc6cc(C)n(C)n6)ncc5C)c[nH]c24)C3=O)ccn1 [Example 502, 2-(3-(2-((1,5-dimethyl-1H-pyrazol-3-yl)amino)-5-methylpyrimidin-4-yl)-1H-indol-7-yl)-4-(2-methylpyridin-4-yl)-2,3-dihydro-1H-pyrrolo[3,4-c]pyridin-1-one] | < 10
